2 molecules from patent US8716355B2, “Hydroxylated tolans and related compounds in the treatment of a cancer” (Kent State University, priority 2007, dated 2014) can be followed below.

Several values for one entry are separate records, joined by “and”; a condition that tells them apart may be missing. Identical values can stand only once. Like-named read-outs stand apart in the source and are kept apart here.

One series concerns Mushroom tyrosinase. The experiment in a line: Inhibition of mushroom tyrosinase activity. The series is classed as biochemical. Particulars: concentration not given. The method, then:
All chemical used for reagents were purchased from Sigma Chemical Company. KST201 at each tested concentration (1000, 250 and 100 μM) was dissolved in 10% ethanol from a master mixture of the drug prepared at 0.1M in 100% ethanol.
Mushroom tyrosinase (Sigma) was diluted in 50 mM phosphate buffer, pH 6.5 to yield a concentration of 16 U/μl. […] A master mix containing 0.5 mM L-DOPA [3,4-dihydroxy-1-phenylalanine], 10 mM Sodium L-tyrosine in 50 mM phosphate buffer, pH 6.5 was prepared. The KST-201 dilutions were preincubated with the enzyme for 20 minutes. The samples were pipetted into 24 well plates and the master mixture added quickly. The reaction was read using a kinetic format in which wells were read every 30 seconds over a course of 10 minutes at a wavelength of 475 nm using a Synergy HT Plate reader. A kinetic curve was generated for each sample compared to a total reaction with mushroom tyrosinase without a drug (total).

In the next series the test system is T24. The series is described as follows: MTT cytotoxicity, T24 bladder cancer cells. The series is classed as cell-based, human. Here is the method: As a first step, the antitumor activity of the tolans was assessed against a panel of three cancer cells lines that produce solid tumors upon implantation into animals. DU145 is an androgen-independent prostate cancer cells. T24 is a transitional cell bladder carcinoma cell. MDAH2274 (“MDAH) is an endometroid ovarian adenocarcinoma cell. To assess the selectivity of this antitumor activity, the toxicity of the tolans to normal human fibroblasts (MHRF) was examined.
Cell killing was evaluated using the colorimetric MTT assay. The assay measures the formation of a colored product from a chromogenic precursor, the tetrazole 3-[4,5-dimethylthiazol-2-yl]-2,5 diphenyltetrazolium bromide (MTT). The yellow MTT is reduced to purple formazan in the mitochondria of living cells. A solubilization solution (typically dimethyl sulfoxide or sodium dodecyl sulfate in dilute hydrochloric acid) is added to dissolve the insoluble purple formazan product into a colored solution. The absorbance of this colored solution is quantified by measuring at a certain wavelength (usually between 500 and 600 nm) by a spectrophotometer. […] This MTT assay is used widely to assess the cytotoxicity and selectivity of compounds such as anti-cancer drugs. The assay is suitable for rapid toxicity characterization of a test agent such as a drug formulation. […] A lower CD50 indicates a greater cytotoxic activity (as a lower amount of the agent is needed to achieve a fixed level of cytotoxicity). Two agents can be compared by examining the fold-increase or decrease in their CD50 values. […]

The subject of a further series is MeWo. The experiment in a line: MTT cytotoxicity, MeWo melanoma. Particulars: Homo sapiens, 72 h, 3 Days, read-out: CD50 (μM) MeWo. It is filed as cell-based. Here is the method:
(§1) Cell killing was evaluated using the colorimetric MTT assay. The assay measures the formation of a colored product from a chromogenic precursor, the tetrazole 3-[4,5-dimethylthiazol-2-yl]-2,5 diphenyltetrazolium bromide (MTT). The yellow MTT is reduced to purple formazan in the mitochondria of living cells. A solubilization solution (typically dimethyl sulfoxide or sodium dodecyl sulfate in dilute hydrochloric acid) is added to dissolve the insoluble purple formazan product into a colored solution. The absorbance of this colored solution is quantified by measuring at a certain wavelength (usually between 500 and 600 nm) by a spectrophotometer. The amount of purple formazan product generated is proportional to the number of viable cells (Mosmann, T., 1983, J. Immunol. Meth. 65:55-63; Wilson, A. P., Cytotoxicity and Viability Assays. In: Animal Cell Culture: A Practical Approach, 3rd ed. (Masters, J R W, ed.) Oxford University Press: Oxford, Vol. 1, pp. 175-219. 2000). This MTT assay is used widely to assess the cytotoxicity and selectivity of compounds such as anti-cancer drugs. The assay is suitable for rapid toxicity characterization of a test agent such as a drug formulation. […] A lower CD50 indicates a greater cytotoxic activity (as a lower amount of the agent is needed to achieve a fixed level of cytotoxicity). […]

The subject of the next series is WiDR. The series is described as follows: MTT cytotoxicity, WiDR colon. It is filed as cell-based. The note with it: Homo sapiens, 72 h, 3 Days, read-out: CD50 (μM) WiDR. Here is the method:
as §1

In a further series the test system is HT29. The series is described as follows: MTT cytotoxicity, HT29 colon. The series is classed as cell-based. The note with it: Homo sapiens, HT-29, 72 h; 3 Days; read-out: CD50 (μM) HT29. Here is the method: as §1
[1] abbreviates: MTT, 1 day incubation, read-out: CD50 against T24, compound tested individually.

As to `Oc1ccc(/C=C/c2cc(O)cc(O)c2)cc1` [Resveratrol, 3,5,4′-trihydroxy-trans-stilbene, reference compound], the “% inhibition of mushroom tyrosinase activity” value with Mushroom tyrosinase was 59.9±7.4%. Moreover, the IC50 with T24 (Homo sapiens, T-24, 24 h, MTT, 1 day incubation, read-out: CD50 against T24, compound tested individually) amounted to 36 µM; with T24 (Homo sapiens, T-24, 48 h, MTT, 2 days incubation, read-out: CD50 against T24, compound tested individually) it was 29.1 ± 0.05 µM; in the series on T24 (setting [1]) it was 35.7 ± 1 µM; in the series on T24 (MTT, 3 days incubation, listed as resveratrol, read-out: CD50 against T24), 23 µM; in the series with T24 (MTT, 3 days incubation, read-out: CD50 against T24), 22.6 ± 0.25 µM; in the series with MeWo it was 185 ± 3.7 µM. In addition, the values for the IC50 in the series with WiDR and in the series on HT29 were 142 ± 6.4 µM and 163 ± 0.3 µM, respectively.
`Oc1ccc(C#Cc2ccc(O)cc2)cc1` [KST-201, 4,4′-dihydroxytolan]: the “% inhibition of mushroom tyrosinase activity” value in the series with Mushroom tyrosinase amounted to 59.2±13%. The “Fold more potent in killing T24 cells vs. control MHRF fibroblasts” value in the series on T24 is given as 18 fold. Further, the IC50 in the series on T24 (Homo sapiens, T-24, 24 h, VC:KST-201 200:1, 1 day, read-out: CD50 (μM) of each Compound tested in combination, T24) was 3.19 µM; with T24 (Homo sapiens, T-24, 48 h, VC:KST-201 200:1, 2 days, read-out: CD50 (μM) of each Compound tested in combination, T24), 3.17 µM; in the series with T24 (Homo sapiens, T-24, 72 h, MTT, 3 days incubation, read-out: CD50 against T24), 8.5 µM; in the series on T24 (setting [1]), 83 µM and 82.6 µM; in the series on T24 (MTT, 2 days incubation, read-out: CD50 against T24, compound tested individually) it was 31.1 ± 0.81 µM; in the series with MeWo it was 156 ± 2.5 µM. In addition, the IC50 in the series on WiDR is 80 ± 0.9 µM; in the series on HT29 it was 79 ± 0.8 µM. For the same molecule, in the series with T24 (Table 15 vs Table 14), the “Fold more toxic to T24 bladder cancer cells than resveratrol” value is 2.8 fold. The “Increase of cytotoxic potency when given together, T24” value in the series on T24 (VC:KST-201 200:1) is “about 7 fold”.
